Test results as given in US10954269B2, “Anti-inflammatory tripeptides” (Dr. August Wolff Gmbh & Co. KG Arzneimittel, priority 2013, dated 2021).

Experiments:
Conditions in all cases: substance 10^−9M
primary murine T-cells = assay: Cytokine secretion on protein level in activated primary murine T-cells (13-plex FACS / Luminex, supernatant); type: cell-based, C57BL/6 mice
Outline: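 T-cells from secondary lymphatic organs of naïve C57BL/6 mice, stimulated with PMA/Ionomycin or IFN-γ; supernatant cytokines measured by 13-plex FACS 48 h and 72 h after stimulation. In another run, PMA/Ionomycin-stimulated cells received compounds at 10^−7, 10^−9 and 10^−11 M, with IFN-γ, IL-17 and IL-10 measured by Luminex.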

primary human T-cells = assay: Cytokine secretion on protein level in activated primary human T-cells (13-plex FACS / Luminex, supernatant); type: cell-based
Outline: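 Cytokine protein in supernatant is read by multiplex FACS or Luminex. Tripeptide-treated HaCaT cells or blood-derived human T-cells are stimulated beforehand with PMA/Ionomycin or IFN-γ. The most relevant analytes are IL-1, IL-2, IL-6, IL-12p70, IL-17, IFN-γ and TNF-α, sampled 48 h and 72 h after stimulation.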

[1] = test system: human keratinocyte cell line (HaCaT); assay: Cytokine secretion on protein level in activated human keratinocyte cell line HaCaT (13-plex FACS / Luminex, supernatant); type: cell-based
Outline: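 Stimulus: PMA/Ionomycin or IFN-γ, 48 h; cells: HaCaT or human peripheral-blood T-cells; tripeptide treatment; readout: supernatant cytokines via 13-plex FACS or Luminex, 48–72 h post-stimulation.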

[2] = primary murine T-cells stimulated with IFN-γ
[3] = primary murine T-cells stimulated with PBS
[4] = primary murine T-cells stimulated with PMA/Ionomycin
[5] = primary human T-cells stimulated with IFN-γ
[6] = primary human T-cells stimulated with PBS
[7] = primary human T-cells stimulated with PMA/Ionomycin
[8] = HaCaT stimulated with PMA/Ionomycin

H-(L)-Om-(L)-Pro-Aib-OH [Example 11]
IL-1 cytokine concentration (primary murine T-cells; [2]): 100.08 pg/mL | IL-2 cytokine concentration (primary murine T-cells; [2]): 208.9 pg/mL | IL-4 cytokine concentration (primary murine T-cells; [2]): 53.65 pg/mL | IL-5 cytokine concentration (primary murine T-cells; [2]): 531.87 pg/mL | IL-6 cytokine concentration (primary murine T-cells; [2]): 193.06 pg/mL | IL-10 cytokine concentration (primary murine T-cells; [2]): 1383.43 pg/mL | IL-13 cytokine concentration (primary murine T-cells; [2]): 0 pg/mL | IL-17 cytokine concentration (primary murine T-cells; [2]): 39.84 pg/mL | IL-21 cytokine concentration (primary murine T-cells; [2]): 263.02 pg/mL | IL-22 cytokine concentration (primary murine T-cells; [2]): 31.59 pg/mL | IL-27 cytokine concentration (primary murine T-cells; [2]): 42.99 pg/mL | TNF-α cytokine concentration (primary murine T-cells; [2]): 19.71 pg/mL | IFN-γ cytokine concentration (primary murine T-cells; [3]): 8321.6 pg/mL | IL-1 cytokine concentration (primary murine T-cells; [3]): 75.71 pg/mL | IL-2 cytokine concentration (primary murine T-cells; [3]): 204.62 pg/mL | IL-4 cytokine concentration (primary murine T-cells; [3]): 0 pg/mL | IL-5 cytokine concentration (primary murine T-cells; [3]): 459.03 pg/mL | IL-6 cytokine concentration (primary murine T-cells; [3]): 172.33 pg/mL | IL-10 cytokine concentration (primary murine T-cells; [3]): 905.76 pg/mL | IL-13 cytokine concentration (primary murine T-cells; [3]): 0 pg/mL | IL-17 cytokine concentration (primary murine T-cells; [3]): 0 pg/mL | IL-21 cytokine concentration (primary murine T-cells; [3]): 0 pg/mL | IL-22 cytokine concentration (primary murine T-cells; [3]): 66.43 pg/mL | IL-27 cytokine concentration (primary murine T-cells; [3]): 141.82 pg/mL | TNF-α cytokine concentration (primary murine T-cells; [3]): 0 pg/mL | IFN-γ cytokine concentration (primary murine T-cells; [4]): 2756.75 pg/mL | IL-1 cytokine concentration (primary murine T-cells; [4]): 178.78 pg/mL | IL-2 cytokine concentration (primary murine T-cells; [4]): 261.53 pg/mL | IL-4 cytokine concentration (primary murine T-cells; [4]): 117.11 pg/mL | IL-5 cytokine concentration (primary murine T-cells; [4]): 513.39 pg/mL | IL-6 cytokine concentration (primary murine T-cells; [4]): 333.86 pg/mL | IL-10 cytokine concentration (primary murine T-cells; [4]): 1302.16 pg/mL | IL-13 cytokine concentration (primary murine T-cells; [4]): 0 pg/mL | IL-17 cytokine concentration (primary murine T-cells; [4]): 244.88 pg/mL | IL-21 cytokine concentration (primary murine T-cells; [4]): 0 pg/mL | IL-22 cytokine concentration (primary murine T-cells; [4]): 94.31 pg/mL | IL-27 cytokine concentration (primary murine T-cells; [4]): 99.05 pg/mL | TNF-α cytokine concentration (primary murine T-cells; [4]): 86.61 pg/mL | IL-1 cytokine concentration (primary human T-cells; [5]): 0 pg/mL | IL-2 cytokine concentration (primary human T-cells; [5]): 212.98 pg/mL | IL-4 cytokine concentration (primary human T-cells; [5]): 0 pg/mL | IL-5 cytokine concentration (primary human T-cells; [5]): 83.3 pg/mL | IL-6 cytokine concentration (primary human T-cells; [5]): 108.08 pg/mL | IL-9 cytokine concentration (primary human T-cells; [5]): 8.15 pg/mL | IL-10 cytokine concentration (primary human T-cells; [5]): 50.11 pg/mL | IL-12p70 cytokine concentration (primary human T-cells; [5]): 0 pg/mL | IL-13 cytokine concentration (primary human T-cells; [5]): 180.41 pg/mL | IL-17 cytokine concentration (primary human T-cells; [5]): 0 pg/mL | IL-22 cytokine concentration (primary human T-cells; [5]): 0 pg/mL | TNF-α cytokine concentration (primary human T-cells; [5]): 52.55 pg/mL | IL-1 cytokine concentration (primary human T-cells; [6]): 0 pg/mL | IL-2 cytokine concentration (primary human T-cells; [6]): 0 pg/mL | IL-4 cytokine concentration (primary human T-cells; [6]): 121.69 pg/mL | IL-5 cytokine concentration (primary human T-cells; [6]): 0 pg/mL | IL-6 cytokine concentration (primary human T-cells; [6]): 172.14 pg/mL | IL-9 cytokine concentration (primary human T-cells; [6]): 10.84 pg/mL | IL-10 cytokine concentration (primary human T-cells; [6]): 0 pg/mL | IL-12p70 cytokine concentration (primary human T-cells; [6]): 0 pg/mL | IL-13 cytokine concentration (primary human T-cells; [6]): 187.86 pg/mL | IL-17 cytokine concentration (primary human T-cells; [6]): 0 pg/mL | IL-22 cytokine concentration (primary human T-cells; [6]): 0 pg/mL | INF-α cytokine concentration (primary human T-cells; [6]): 505.68 pg/mL | TNF-α cytokine concentration (primary human T-cells; [6]): 52.55 pg/mL | IL-1 cytokine concentration (primary human T-cells; [7]): 677.32 pg/mL | IL-2 cytokine concentration (primary human T-cells; [7]): 3920.52 pg/mL | IL-4 cytokine concentration (primary human T-cells; [7]): 112.94 pg/mL | IL-5 cytokine concentration (primary human T-cells; [7]): 525.15 pg/mL | IL-6 cytokine concentration (primary human T-cells; [7]): 1474.06 pg/mL | IL-9 cytokine concentration (primary human T-cells; [7]): 380.3 pg/mL | IL-10 cytokine concentration (primary human T-cells; [7]): 563.89 pg/mL | IL-12p70 cytokine concentration (primary human T-cells; [7]): 0 pg/mL | IL-13 cytokine concentration (primary human T-cells; [7]): 1258.74 pg/mL | IL-17 cytokine concentration (primary human T-cells; [7]): 3306.09 pg/mL | IL-22 cytokine concentration (primary human T-cells; [7]): 0 pg/mL | INF-α cytokine concentration (primary human T-cells; [7]): 9554.27 pg/mL | TNF-α cytokine concentration (primary human T-cells; [7]): 2209.22 pg/mL | IL-1 cytokine concentration ([1]; HaCaT stimulated with IFN-γ): 31.54 pg/mL | IL-2 cytokine concentration ([1]; HaCaT stimulated with IFN-γ): 0 pg/mL | IL-4 cytokine concentration ([1]; HaCaT stimulated with IFN-γ): 0 pg/mL | IL-5 cytokine concentration ([1]; HaCaT stimulated with IFN-γ): 0 pg/mL | IL-6 cytokine concentration ([1]; HaCaT stimulated with IFN-γ): 265.29 pg/mL | IL-9 cytokine concentration ([1]; HaCaT stimulated with IFN-γ): 0 pg/mL | IL-10 cytokine concentration ([1]; HaCaT stimulated with IFN-γ): 0 pg/mL | IL-12p70 cytokine concentration ([1]; HaCaT stimulated with IFN-γ): 0 pg/mL | IL-13 cytokine concentration ([1]; HaCaT stimulated with IFN-γ): 989.21 pg/mL | IL-17 cytokine concentration ([1]; HaCaT stimulated with IFN-γ): 0 pg/mL | IL-22 cytokine concentration ([1]; HaCaT stimulated with IFN-γ): 0 pg/mL | TNF-α cytokine concentration ([1]; HaCaT stimulated with IFN-γ): 0 pg/mL | IFN-γ cytokine concentration ([1]; HaCaT stimulated with PBS): 0 pg/mL | IL-1 cytokine concentration ([1]; HaCaT stimulated with PBS): 0 pg/mL | IL-2 cytokine concentration ([1]; HaCaT stimulated with PBS): 0 pg/mL | IL-4 cytokine concentration ([1]; HaCaT stimulated with PBS): 99.64 pg/mL | IL-5 cytokine concentration ([1]; HaCaT stimulated with PBS): 0 pg/mL | IL-6 cytokine concentration ([1]; HaCaT stimulated with PBS): 42.94 pg/mL | IL-9 cytokine concentration ([1]; HaCaT stimulated with PBS): 1.97 pg/mL | IL-10 cytokine concentration ([1]; HaCaT stimulated with PBS): 43.56 pg/mL | IL-12p70 cytokine concentration ([1]; HaCaT stimulated with PBS): 0 pg/mL | IL-13 cytokine concentration ([1]; HaCaT stimulated with PBS): 0 pg/mL | IL-17 cytokine concentration ([1]; HaCaT stimulated with PBS): 0 pg/mL | IL-22 cytokine concentration ([1]; HaCaT stimulated with PBS): 0 pg/mL | TNF-α cytokine concentration ([1]; HaCaT stimulated with PBS): 0 pg/mL | IFN-γ cytokine concentration [1, 8]: 57.58 pg/mL | IL-1 cytokine concentration [1, 8]: 0 pg/mL | IL-2 cytokine concentration [1, 8]: 19.32 pg/mL | IL-4 cytokine concentration [1, 8]: 0 pg/mL | IL-5 cytokine concentration [1, 8]: 0 pg/mL | IL-6 cytokine concentration [1, 8]: 207.76 pg/mL | IL-9 cytokine concentration [1, 8]: 0 pg/mL | IL-10 cytokine concentration [1, 8]: 87.41 pg/mL | IL-12p70 cytokine concentration [1, 8]: 0 pg/mL | IL-13 cytokine concentration [1, 8]: 0 pg/mL | IL-17 cytokine concentration [1, 8]: 0 pg/mL | IL-22 cytokine concentration [1, 8]: 0 pg/mL | TNF-α cytokine concentration [1, 8]: 0 pg/mL
